Measured values as given in ChEMBL document CHEMBL1154382, “Preliminary SAR analysis of novel antiproliferative N(6),5'-bis-ureidoadenosine derivatives” (2009).
Active and inactive are the calls of the source.

Tests used:
Assay type in all cases: functional
786-0 = assay: Antiproliferative activity against human 786-0 cells at 10 uM assessed as cell growth inhibition relative to control
HCC 2998 = assay: Antiproliferative activity against human HCC2998 cells at 10 uM assessed as cell growth inhibition relative to control
RXF 393 = assay: Antiproliferative activity against human RXF393 cells at 10 uM assessed as cell growth inhibition relative to control
A498 = assay: Antiproliferative activity against human A498 cells at 10 uM assessed as cell growth inhibition relative to control
SF-268 = assay: Antiproliferative activity against human SF268 cells at 10 uM assessed as cell growth inhibition relative to control
EKVX = assay: Antiproliferative activity against human EKVX cells at 10 uM assessed as cell growth inhibition relative to control
UACC-257 = assay: Antiproliferative activity against human UACC257 cells at 10 uM assessed as cell growth inhibition relative to control
HOP-62 = assay: Antiproliferative activity against human HOP62 cells at 10 uM assessed as cell growth inhibition relative to control
HL-60(TB) = assay: Antiproliferative activity against human HL-60(TB) cells at 10 uM assessed as cell growth inhibition relative to control
HCT-15 = assay: Antiproliferative activity against human HCT15 cells at 10 uM assessed as cell growth inhibition relative to control
HOP-92 = assay: Antiproliferative activity against human HOP92 cells at 10 uM assessed as cell growth inhibition relative to control
OVCAR-8 = assay: Antiproliferative activity against human OVCAR8 cells at 10 uM assessed as cell growth inhibition relative to control
PC-3 = assay: Antiproliferative activity against human PC3 cells at 10 uM assessed as cell growth inhibition relative to control
SK-MEL-28 = assay: Antiproliferative activity against human SK-MEL-28 cells at 10 uM assessed as cell growth inhibition relative to control
SK-MEL-5 = assay: Antiproliferative activity against human SK-MEL-5 cells at 10 uM assessed as cell growth inhibition relative to control
BT-549 = assay: Antiproliferative activity against human BT549 cells at 10 uM assessed as cell growth inhibition relative to control
SNB-75 = assay: Antiproliferative activity against human SNB75 cells at 10 uM assessed as cell growth inhibition relative to control
HT-29 = assay: Antiproliferative activity against human HT-29 cells at 10 uM assessed as cell growth inhibition relative to control
Malme-3M = assay: Antiproliferative activity against human MALME-3M cells at 10 uM assessed as cell growth inhibition relative to control
LOX IMVI = assay: Antiproliferative activity against human LOXIMVI cells at 10 uM assessed as cell growth inhibition relative to control
NCI-H226 = assay: Antiproliferative activity against human NCI-H226 cells at 10 uM assessed as cell growth inhibition relative to control
SN12C = assay: Antiproliferative activity against human SN12C cells at 10 uM assessed as cell growth inhibition relative to control
SW-620 = assay: Antiproliferative activity against human SW620 cells at 10 uM assessed as cell growth inhibition relative to control
UO-31 = assay: Antiproliferative activity against human UO31 cells at 10 uM assessed as cell growth inhibition relative to control
COLO 205 = assay: Antiproliferative activity against human COLO205 cells at 10 uM assessed as cell growth inhibition relative to control
HCT-116 = assay: Antiproliferative activity against human HCT116 cells at 10 uM assessed as cell growth inhibition relative to control
M14 = assay: Antiproliferative activity against human M14 cells at 10 uM assessed as cell growth inhibition relative to control
TK-10 = assay: Antiproliferative activity against human TK10 cells at 10 uM assessed as cell growth inhibition relative to control
SF-539 = assay: Antiproliferative activity against human SF539 cells at 10 uM assessed as cell growth inhibition relative to control
NCI-H522 = assay: Antiproliferative activity against human NCI-H522 cells at 10 uM assessed as cell growth inhibition relative to control
MDA-MB-231 = assay: Antiproliferative activity against human MDA-MB-231 cells at 10 uM assessed as cell growth inhibition relative to control
NCI-H322M = assay: Antiproliferative activity against human NCI-H322M cells at 10 uM assessed as cell growth inhibition relative to control
MOLT-4 = assay: Antiproliferative activity against human MOLT4 cells at 10 uM assessed as cell growth inhibition relative to control
KM12 = assay: Antiproliferative activity against human KM12 cells at 10 uM assessed as cell growth inhibition relative to control
OVCAR-5 = assay: Antiproliferative activity against human OVCAR5 cells at 10 uM assessed as cell growth inhibition relative to control
OVCAR-3 = assay: Antiproliferative activity against human OVCAR-3 cells at 10 uM assessed as cell growth inhibition relative to control
SF-295 = assay: Antiproliferative activity against human SF295 cells at 10 uM assessed as cell growth inhibition relative to control
SK-MEL-2 = assay: Antiproliferative activity against human SK-MEL-2 cells at 10 uM assessed as cell growth inhibition relative to control
CCRF-CEM = assay: Antiproliferative activity against human CCRF-CEM cells at 10 uM assessed as cell growth inhibition relative to control
K562 = assay: Antiproliferative activity against human K562 cells at 10 uM assessed as cell growth inhibition relative to control
SNB-19 = assay: Antiproliferative activity against human SNB19 cells at 10 uM assessed as cell growth inhibition relative to control
IGROV-1 = assay: Antiproliferative activity against human IGROV1 cells at 10 uM assessed as cell growth inhibition relative to control
SK-OV-3 = assay: Antiproliferative activity against human SKOV3 cells at 10 uM assessed as cell growth inhibition relative to control
NCI-H460 = assay: Antiproliferative activity against human NCI-H460 cells at 10 uM assessed as cell growth inhibition relative to control
Hs-578T = assay: Antiproliferative activity against human Hs 578T cells at 10 uM assessed as cell growth inhibition relative to control
CAKI-1 = assay: Antiproliferative activity against human Caki1 cells at 10 uM assessed as cell growth inhibition relative to control
ACHN = assay: Antiproliferative activity against human ACHN cells at 10 uM assessed as cell growth inhibition relative to control
NCI-H23 = assay: Antiproliferative activity against human NCI-H23 cells at 10 uM assessed as cell growth inhibition relative to control
OVCAR-4 = assay: Antiproliferative activity against human OVCAR4 cells at 10 uM assessed as cell growth inhibition relative to control
DU-145 = assay: Antiproliferative activity against human DU145 cells at 10 uM assessed as cell growth inhibition relative to control
RPMI8266 = assay: Antiproliferative activity against human […] cells at 10 uM assessed as cell growth inhibition relative to control
A549 = assay: Antiproliferative activity against human A549 cells at 10 uM assessed as cell growth inhibition relative to control
UACC-62 = assay: Antiproliferative activity against human UACC62 cells at 10 uM assessed as cell growth inhibition relative to control
U-251 = assay: Antiproliferative activity against human U251 cells at 10 uM assessed as cell growth inhibition relative to control
T47D = assay: Antiproliferative activity against human T47D cells at 10 uM assessed as cell growth inhibition relative to control
MDA-MB-468 = assay: Antiproliferative activity against human MDA-MB-468 cells at 10 uM assessed as cell growth inhibition relative to control
MCF7 = assay: Antiproliferative activity against human MCF7 cells at 10 uM assessed as cell growth inhibition relative to control

Measured: growth inhibition (GI)

CNC(=O)NC[C@H]1O[C@@H](n2cnc3c(NC(=O)Nc4ccccc4)ncnc32)[C@H](O)[C@@H]1O
inactive: all assays above
